Measured values taken from ChEMBL document CHEMBL4411289, “Antinociceptive Potential of Zinnia grandiflora” (2019).
Calls of active or inactive are those of the source. No cut-off for these calls is given here.

Legend:
Mus musculus [1] = assay: Antinociceptive activity in ICR mouse assessed as reduction in licking time at 31.6 mg/kg, po dosed 30 mins before formalin injection and by formalin test; type: functional; design: scale not given: the % may be the effect or the level left
Mus musculus [2] = assay: Antinociceptive activity in ICR mouse assessed as reduction in licking time during phase 1 (acute phase) at 3.16 to 31.6 mg/kg, po dosed 30 mins before formalin injection and by formalin test; type: functional, organism-based
Mus musculus [3] = assay: Antinociceptive activity in ICR mouse assessed as reduction in licking time during phase 2 (tonic response phase) at 3.16 to 31.6 mg/kg, po dosed 30 mins before formalin injection and by formalin test; type: functional, organism-based

SMILES	Activity (Mus musculus [1]) [%]	Activity (Mus musculus [2])	Activity (Mus musculus [3])
O=C(O)Cc1ccccc1Nc1c(Cl)cccc1Cl [DICLOFENAC]	40.9		
C=C[C@@]1(C)[C@H]2OC(=O)C(=C)[C@H]([C@@H]2OC(=O)/C(C)=C\C)[C@H](OC(=O)C(C)C)[C@@H]1C(=C)C(=O)O		Active	Active
